In data set [1] the target is T1, Thermotoga maritima mPPase (TmPPase) (Thermotoga maritima, UniProt Q9S5X0). The data set is described as follows: TmPPase inhibition assay (96-well). Type of data set: biochemical. Conditions: for pIC50: TmPPase inhibition, NA = IC50 not assigned, read-out: IC50 [CI95%]. The source says:
We started from the previously identified 5‐arylisoxazole‐3‐carboxylate core present in 2–5 (Figure 1, highlighted in blue). Using KNIME,[30] we did a substructure search for commercial analogues in the ZINC12 database[31] […] Therefore, we manually picked compounds from a diverse collection provided by a single vendor (Ambinter, 174 matches for the substructure query). Out of the search results, we selected fifteen isoxazoles for testing in vitro. For all compounds in this manuscript, we tested activity using a 96‐well based assay that detects the inhibition of TmPPase.[22, 23, 24]
(§1) All commercially obtained compounds had purities >90 % as specified by the vendor. Synthesized compounds were >95 % pure as determined by LC–MS and characterized by HRMS. The inhibition assay was carried out with purified TmPPase as previously reported.[22, 23, 24] The best hits 17 a, 19 a, and 20 a, were validated using eight compound concentrations in triplicate. Further hit validation was done against the purified mPPase from P. falciparum (PfPPase‐VP1) expressed in baculovirus‐infected insect cells (expression, purification and further enzyme analysis will be described in more detail elsewhere). 4 μL of the purified PfPPase‐VP1 (2.0 mg/mL) was reactivated in 96 μL of reactivation buffer, i. e. 20 mM 2‐(N‐morpholino)ethanesulfonic acid (MES) pH 6.5, 3.5 % (v/v) glycerol, 2 mM dithiothreitol (DTT) and 12 mg/mL L‐α‐phosphatidylcholine from soybean. For each tube strip, 3 μL of the reactivated PfPPase‐VP1 was added into 12 μL of reaction buffer (200 mM Tris‐Cl pH 8.0, 8.0 mM MgCl2, 333 mM KCl, 67 mM NaCl) and 25 μL of inhibitor solution. The reaction mixtures were incubated at 50 °C for 5 min and the assay was started with the addition of 10 μL of 2 mM sodium pyrophosphate and further incubation at 50 °C for 45 min. The reaction termination and colour development were done as earlier described.[22, 23, 24]
6 IC50 plots from the TmPPase inhibition assay
The blue and black curves refer to compounds presented already in the main article and only shown in the Supporting Information, respectively. IC50, half maximal inhibitory concentration; CI95%, half maximal inhibitory concentration expressed as a 95% confidence interval (given in square brackets); […]
IC50 determinations were done using R 3.6.1[2] and the n-parameter logistic regression (nplr) package[3] version 0.1.7. In this package, the weighted nplr, given x (compound concentrations) and y values (activity) is calculated using Richard’s equation (eq 1) where B and T are the bottom and top asymptotes, respectively; b and xmid are the Hill slope and the x coordinate at inflexion point, respectively; and s is an asymmetric coefficient. The model parameters were simultaneously optimized using non-linear minimization, using a sum of squared errors.[4] The standard error of the model, defined as the squared error on the fitted values, is used to estimate a confidence interval at 95% on the predicted IC50 values.

Data set [2] has as its system Plasmodium falciparum parasite strain 3D7. The data set is described as follows: P. falciparum survival (growth) assay in erythrocyte culture, SYBR Green I. Type of data set: cell-based. Conditions: 72 h, strain 3D7 in human erythrocytes. The protocol:
Plasmodium falciparum parasite strain 3D7 was used for testing the antiplasmodial activity of the test compounds. The parasite was maintained in culture as described previously.[37] Briefly, parasites were cultured in O+ human erythrocytes at 5 % haematocrit in RPMI‐1640 medium supplemented with 0.5 % Albumax II (Gibco, Carlsbad, CA, USA), 200 μM hypoxanthine (Sigma, St. Louis, MO, USA) and 20 μg/mL gentamycin (Gibco). Parasites were synchronized with the sorbitol method as described.[38] Test compounds were dissolved in DMSO to make a stock solution of 10 mM or 50 mM. Two‐fold serial dilutions of the test compounds were made in the culture medium to cover either the range of 100 μM–100 nM or 400 μM–390 nM. 50 μL of each dilution were mixed in 96‐well plate with 150 μL of 2 % haematocrit of 0.5 % parasitemia (ring stage). Compound dilutions were also mixed with 150 μL of 2 % haematocrit of uninfected erythrocytes to serve as baselines for the activity of the coloured compounds. DMSO concentration in the highest compound concentration was 0.8 %. After 72 h incubation at 37 °C, the parasite growth was quantified using fluorescent SYBR Green I®‐based assay as described.[39] The half‐maximal inhibitory concentration (IC50) of the test compounds was assessed using the non‐linear regression fit model in Prism 7 (GraphPad Software, San Diego, CA, USA). The potent anti‐malarial drug, artemisinin, was used in parallel as a positive control. Each concentration of the test compounds was tested in duplicate and the assay was repeated three times. The mean and standard deviation of the three repeats were used to calculate the IC50.

In data set [3] the target is purified mPPase from P. falciparum (PfPPase-VP1) (Plasmodium falciparum, UniProt Q8IKR1). As to the kind of experiment: PfPPase-VP1 inhibition assay. Type of data set: biochemical. The settings on record: purified PfPPase-VP1, 50 °C, three replicates; for pIC50: read-out: IC50. The protocol:
Further hit validation was done against the purified mPPase from P. falciparum (PfPPase‐VP1) expressed in baculovirus‐infected insect cells. […] Overall, these compounds have higher IC50 values for PfPPase‐VP1 than for TmPPase.
as §1

Data set [4] in a line: Colloidal aggregation by nephelometry under TmPPase assay conditions. Type of data set: physicochemical. The procedure:
In order to rule out a cause of false positives, colloidal aggregation in the TmPPase model assay was evaluated for compounds 17 a, 19 a and 20 a at six concentrations (100 μM, 50 μM, 20 μM, 10 μM, 1 μM, and 0.1 μM) using the assay conditions (Figure S3).
3 Aggregation data for 17a, 19a and 20a (Figure S3)
Potential colloidal aggregation in the TmPPase model system was studied by nephelometric methods using Nepheloskan Ascent® (Labsystems, Finland). The original assay conditions were simulated, and the light scattering of potential aggregates in the mixture was studied at six concentrations (100 µM, 50 µM, 20 µM, 10 µM, 1 µM and 0.1 µM). Aggregation of the blank and compounds 17a, 19a and 20a was measured as quadruplicates from one independent experiment at three different voltages (300 V, 400 V and 500 V) at room temperature. […]
values at 10 µM, 1 µM and 0.1 µM were similar to those observed by the blank, indicating merely […]
Figure S3. Aggregation data for compounds 17a, 19a and 20a. The data, measured in relative nephelometric units (RNU), is shown as the mean ± SD and normalized to the blank.
(1 picture or pasted object on this page, not shown here)

The subject of data set [5] is Plasmodium falciparum parasite strain 3D7. Also noted: method as in PMID 32292570. The settings on record: cited from earlier work.
In data set [6] the target is T1, Thermotoga maritima mPPase (TmPPase). Also noted: method as in PMID 31131322, PMID 32292570. Conditions: previously reported inhibitors, read-out: IC50 [CI95%]; cited from earlier work.
[7] abbreviates: Plasmodium falciparum, 3D7, Erythrocyte.

These results are taken from PMC8597055, “Exploration of Pyrazolo[1,5‐a]pyrimidines as Membrane‐Bound Pyrophosphatase Inhibitors” (Chemmedchem, 2021).

pIC50: −log10 of the molar value. Several values for one entry are separate records, joined by “and”; a condition that tells them apart may be missing. Equal entries are not always repeated. Where two headings read alike, the source gives them in different places. Where only a bound is given, the exact number is not on record here.

T1 sequence (Q9S5X0 whole entry): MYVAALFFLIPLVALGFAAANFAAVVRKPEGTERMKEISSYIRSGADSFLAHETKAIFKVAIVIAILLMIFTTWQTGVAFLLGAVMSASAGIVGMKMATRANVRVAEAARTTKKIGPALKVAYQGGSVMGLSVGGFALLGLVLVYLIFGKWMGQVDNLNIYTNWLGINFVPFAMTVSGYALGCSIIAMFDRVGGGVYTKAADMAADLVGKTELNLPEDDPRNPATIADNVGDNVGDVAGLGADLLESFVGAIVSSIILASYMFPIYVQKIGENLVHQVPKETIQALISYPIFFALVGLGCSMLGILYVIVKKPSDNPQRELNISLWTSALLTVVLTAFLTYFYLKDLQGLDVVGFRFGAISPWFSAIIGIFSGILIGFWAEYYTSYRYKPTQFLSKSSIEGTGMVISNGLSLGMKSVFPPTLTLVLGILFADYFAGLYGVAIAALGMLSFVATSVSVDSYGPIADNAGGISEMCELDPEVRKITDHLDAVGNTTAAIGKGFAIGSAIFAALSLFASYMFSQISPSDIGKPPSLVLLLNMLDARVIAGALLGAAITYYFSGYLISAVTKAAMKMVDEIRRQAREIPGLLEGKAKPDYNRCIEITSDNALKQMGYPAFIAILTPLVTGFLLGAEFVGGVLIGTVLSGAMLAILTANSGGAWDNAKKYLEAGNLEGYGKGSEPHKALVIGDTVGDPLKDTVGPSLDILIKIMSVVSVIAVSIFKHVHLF
Chain of purified mPPase from P. falciparum (PfPPase-VP1) (Q8IKR1 entry or part of it): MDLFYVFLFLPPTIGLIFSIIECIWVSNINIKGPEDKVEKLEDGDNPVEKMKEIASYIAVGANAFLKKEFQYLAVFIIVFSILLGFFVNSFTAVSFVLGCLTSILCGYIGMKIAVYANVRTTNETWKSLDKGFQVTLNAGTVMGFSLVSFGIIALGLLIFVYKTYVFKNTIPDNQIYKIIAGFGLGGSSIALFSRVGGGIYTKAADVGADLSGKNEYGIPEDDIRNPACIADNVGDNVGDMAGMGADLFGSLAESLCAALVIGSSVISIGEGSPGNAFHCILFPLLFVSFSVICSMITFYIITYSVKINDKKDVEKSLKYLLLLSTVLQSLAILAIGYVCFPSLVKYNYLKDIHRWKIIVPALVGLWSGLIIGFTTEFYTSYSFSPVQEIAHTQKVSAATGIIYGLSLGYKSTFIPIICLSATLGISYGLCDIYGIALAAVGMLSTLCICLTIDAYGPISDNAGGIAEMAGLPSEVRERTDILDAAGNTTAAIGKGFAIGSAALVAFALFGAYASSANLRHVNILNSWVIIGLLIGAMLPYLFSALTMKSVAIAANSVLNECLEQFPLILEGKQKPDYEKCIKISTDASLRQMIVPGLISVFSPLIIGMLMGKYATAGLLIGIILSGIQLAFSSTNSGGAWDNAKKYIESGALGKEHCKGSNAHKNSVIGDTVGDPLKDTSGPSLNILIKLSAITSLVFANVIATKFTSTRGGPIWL

The pIC50 is the IC50 on a negative log10 scale, so that one unit is a factor of ten. Regarding `Cc1cc(C)cc(-c2cc(C(=O)Oc3ccccc3Br)nc3cc(Br)nn23)c1` [17 a, 2‐Bromophenyl 2‐bromo‐7‐(3,5‐dimethylphenyl)pyrazolo[1,5‐a]pyrimidine‐5‐carboxylate], the negative logarithm of the IC50 (pIC50) in data set [1] was 4.85; in data set [2] (setting [7]), 4.51; in data set [2] it was 4.51; in data set [3] it was 4.24. The “fold loss in activity compared to 2” value in data set [1] (TmPPase, 17 a versus 2) stood at 2 fold. The “concentration of aggregate formation” value in data set [4] (TmPPase assay conditions, six concentrations 100–0.1 μM) is reported as “above 20 μM”. Moreover, the colloidal aggregation result is given as “negligible/no detectable aggregation” in data set [4] (at 10 µM, 1 µM and 0.1 µM); “aggregate formation” in data set [4] (at 100 µM, 50 µM and 20 µM).
Regarding `Cc1cc(C)cc(-c2cc(C(=O)Oc3ccccc3Br)no2)c1` [compound 2], the “activity ex vivo against P. falciparum” value in data set [5] was “retained activity”. Moreover, the pIC50 in data set [6] is 5.16.
With `COc1cc(C2c3c(-c4cc(Cl)c(C)cc4O)n[nH]c3C(=O)N2Cc2ccccc2)ccc1O` (centres unmarked) [compound 12], the pIC50 in data set [1] was > 4.60 and 4.60; in data set [2] (setting [7]), 5.44; in data set [3] it was 3.74. For the same compound, the IC50 result in data set [3] was “comparably weak”.
